{
  "source": "patent US10125356B2",
  "about": "“Enzymatic methods and enzymes” (Givaudan SA, priority 2007, dated 2018)",
  "key": {"[1]": {"system": "Ax20 peptidase (SEQ ID NO: 2)", "test": "Release of 3-sulfanyl-3-methyl-hexanol from cys-gly-conjugate by clear lysate of recombinant E. coli expressing Ax20 peptidase, monobromobimane fluorescence test", "type": "biochemical, Corynebacterium sp. Ax20", "details": "conjugate 1 mM", "procedure": "(§1) Samples of each fraction were incubated both with the β-lyase and with the cys-gly-conjugate at the same time, and the release of 3-sulfanyl-3-methyl-hexanol was determined by a fluorescence test specific for free SH groups: To this end the enzyme reaction was stopped by adding 0.5 volumes of NaCO3-buffer (0.1 M, pH 8.8) containing 0.5 mM monobromobimane, thus derivatising the free thiol-group. Fluorescence was then measured on a Flex-station (Molecular devices, Sunnyvale, Calif., USA) with an excitation wavelength of 385 nm and an emission wavelength of 480 nm.\n(§2) 50 ml of recombinant E. coli culture formed as described in example 3 and 4 was harvested, resuspended in a final volume of 3 ml of phosphate buffer and then disrupted with ultrasonication. The soluble extract was cleared by centrifugation. Different dilutions of the resulting extract were incubated with the cys-gly-conjugate (1 mM) and in presence as well as in absence of an excess of the β-lyase. As a negative control, clear cell lysate from E. coli transformed with an empty vector, and cell lysates with the cys-gly-conjugate but no β-lyase were used."}, "[2]": {"system": "C. sp. Ax 20 extract", "test": "Cleavage of conjugates by Corynebacterium sp. Ax20 cellular extract, release of 3-sulfanyl-3-methyl-hexanol by gas chromatography", "type": "biochemical", "details": "conjugate 1 mM incubated with C. sp. Ax 20 extract for 24 h", "procedure": "The test compounds (cys-conjugate (1 mM) or cys-gly-conjugate (1 mM)) were incubated also with the wild-type strain Corynebacterium sp. Ax20 extract naturally containing the peptidase of SEQ ID NO:2. Corynebacterium sp. Ax20 cellular extract was prepared as described in example 1. The resulting extract was diluted to the same volume as the original culture has had when adjusted to an optical density of OD 4. The substrate was incubated with the extract for 24 h.\n(§3) Cleavage was measured by gas chromatography to determine the release of 3-sulfanyl-3-methyl-hexanol in mM."}, "[3]": {"system": "Ax20 peptidase", "test": "Substrate specificity of recombinant Ax20 peptidase, cleavage by thin layer chromatography", "type": "biochemical, Corynebacterium sp. Ax20", "details": "1 mM solution, 0.1 or 1 μg/ml peptidase, incubation 1 h", "procedure": "The recombinant Ax20 peptidase formed as described in example 3 (affinity column purified tagged enzyme) was incubated with different compounds, in particular potential candidate dipeptide substrates, to characterize the substrate specificity and to identify substrates useful for screening assays (for example to screen for modulators including inhibitors).\nThe table below lists the tested compounds (mostly dipeptides indicated by their short names, e.g. ala-gly for an alanine-glycine dipeptide) and indicates whether they are cleaved by the peptidase. Z indicates a benzyloxy-carbonyl protecting group at the N-terminus of the peptide.\nCleavage was determined by thin layer chromatography.\nAmounts are qualitative with (+++) indicating >80% cleavage of a 1 mM solution by 0.1 μg/ml peptidase during an incubation for 1 h; (++) indicates complete cleavage of a 1 mM solution by 1 μg/ml peptidase during an incubation for 1 h and (+) indicates partial cleavage (20-80%) of a 1 mM solution by 1 μg/ml peptidase during an incubation for 1 h and (−) indicating the absence of any cleavage."}, "[4]": {"system": "K411 peptidase (SEQ ID NO: 4)", "test": "Release of 3-sulfanyl-3-methyl-hexanol from cys-gly-conjugate by clear lysate of recombinant E. coli expressing K411 peptidase, monobromobimane fluorescence test", "type": "biochemical, Corynebacterium jeikeium K411", "details": "conjugate 1 mM", "procedure": "as §1, §2"}, "[5]": {"molecular_target": "T1, β-lyase (Corynebacterium striatum, UniProt Q64HC5)", "T1 construct": "made in house", "T1 sequence (Q64HC5 whole entry)": "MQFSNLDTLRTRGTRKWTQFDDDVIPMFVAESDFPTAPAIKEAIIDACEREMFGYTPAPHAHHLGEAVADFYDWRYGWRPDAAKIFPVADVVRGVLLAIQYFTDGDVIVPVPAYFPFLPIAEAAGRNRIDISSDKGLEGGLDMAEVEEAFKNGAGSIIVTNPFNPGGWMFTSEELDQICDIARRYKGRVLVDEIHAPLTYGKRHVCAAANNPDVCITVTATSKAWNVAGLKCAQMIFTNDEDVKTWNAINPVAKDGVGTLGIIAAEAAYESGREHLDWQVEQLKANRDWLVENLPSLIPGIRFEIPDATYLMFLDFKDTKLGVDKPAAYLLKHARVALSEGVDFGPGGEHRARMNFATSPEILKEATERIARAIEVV", "test": "Cleavage of conjugates by β-lyase, release of 3-sulfanyl-3-methyl-hexanol by gas chromatography", "type": "biochemical, Corynebacterium sp. Ax20", "details": "conjugate 1 mM incubated with β-lyase", "procedure": "The test compounds (Cys-conjugate (1 mM) or Cys-Gly-conjugate (1 mM)) were incubated with β-lyase.\nas §3"}},
  "data": [
    {"compound": "CCCC(C)(CCO)SC[C@H](N)C(=O)NCC(=O)O", "note": "(stereo in doubt) [Cys-gly-conjugate, (1-(2-hydroxyethyl)-1-methylbutyl)-L-cysteinyl-glycine]", "values": [
      {"measurement": "release of 3-sulfanyl-3-methyl-hexanol from the Cys-Gly-conjugate", "setting": "[1]; Ax20 peptidase + β-lyase, clear cell lysate diluted 10 fold", "result": 1.00, "unit": "mM"},
      {"measurement": "release of 3-sulfanyl-3-methyl-hexanol from the Cys-Gly-conjugate", "setting": "[1]; Ax20 peptidase + β-lyase, clear cell lysate diluted 100 fold", "result": 0.92, "unit": "mM"},
      {"measurement": "release of 3-sulfanyl-3-methyl-hexanol from the Cys-Gly-conjugate", "setting": "[1]; Ax20 peptidase + β-lyase, clear cell lysate diluted 1000 fold", "result": 0.46, "unit": "mM"},
      {"measurement": "release of 3-sulfanyl-3-methyl-hexanol from the Cys-Gly-conjugate", "setting": "[1]; Ax20 peptidase w/o β-lyase, clear cell lysate diluted 10 fold", "result": 0.10, "unit": "mM"},
      {"measurement": "release of 3-sulfanyl-3-methyl-hexanol from the Cys-Gly-conjugate", "setting": "[1]; Ax20 peptidase w/o β-lyase, clear cell lysate diluted 100 fold", "result": "<0.01", "unit": "mM"},
      {"measurement": "release of 3-sulfanyl-3-methyl-hexanol from the Cys-Gly-conjugate", "setting": "[1]; Ax20 peptidase w/o β-lyase, clear cell lysate diluted 1000 fold", "result": "<0.01", "unit": "mM"},
      {"measurement": "release of 3-sulfanyl-3-methyl-hexanol from the Cys-Gly-conjugate", "setting": "[1]; Ax20 peptidase with histidine tag + β-lyase, clear cell lysate diluted 10 fold", "result": 0.94, "unit": "mM"},
      {"measurement": "release of 3-sulfanyl-3-methyl-hexanol from the Cys-Gly-conjugate", "setting": "[1]; Ax20 peptidase with histidine tag + β-lyase, clear cell lysate diluted 100 fold", "result": 0.88, "unit": "mM"},
      {"measurement": "release of 3-sulfanyl-3-methyl-hexanol from the Cys-Gly-conjugate", "setting": "[1]; Ax20 peptidase with histidine tag + β-lyase, clear cell lysate diluted 1000 fold", "result": 0.36, "unit": "mM"},
      {"measurement": "release of 3-sulfanyl-3-methyl-hexanol from the conjugate", "setting": "[2]", "result": 0.21, "unit": "mM"},
      {"measurement": "Cleavage", "setting": "[3]", "result": "+++ ((+++) indicating >80% cleavage of a 1 mM solution by 0.1 μg/ml peptidase during an incubation for 1 h)"},
      {"measurement": "release of 3-sulfanyl-3-methyl-hexanol from the Cys-Gly-conjugate", "setting": "[4]; K411 peptidase + β-lyase, clear cell lysate diluted 10 fold", "result": 0.55, "unit": "mM"},
      {"measurement": "release of 3-sulfanyl-3-methyl-hexanol from the Cys-Gly-conjugate", "setting": "[4]; K411 peptidase + β-lyase, clear cell lysate diluted 100 fold", "result": 0.19, "unit": "mM"},
      {"measurement": "release of 3-sulfanyl-3-methyl-hexanol from the Cys-Gly-conjugate", "setting": "[4]; K411 peptidase + β-lyase, clear cell lysate diluted 1000 fold", "result": 0.03, "unit": "mM"},
      {"measurement": "release of 3-sulfanyl-3-methyl-hexanol from the Cys-Gly-conjugate", "setting": "[4]; K411 peptidase w/o β-lyase, clear cell lysate diluted 10 fold", "result": 0.10, "unit": "mM"},
      {"measurement": "release of 3-sulfanyl-3-methyl-hexanol from the Cys-Gly-conjugate", "setting": "[4]; K411 peptidase w/o β-lyase, clear cell lysate diluted 100 fold", "result": "<0.01", "unit": "mM"},
      {"measurement": "release of 3-sulfanyl-3-methyl-hexanol from the Cys-Gly-conjugate", "setting": "[4]; K411 peptidase w/o β-lyase, clear cell lysate diluted 1000 fold", "result": "<0.01", "unit": "mM"},
      {"measurement": "release of 3-sulfanyl-3-methyl-hexanol from the conjugate", "setting": "[5]", "result": "<0.03", "unit": "mM"}
    ]}
  ]
}
